Key:
[1] = solid-state form interconversion (variable temperature X-ray, drying); assay type: physicochemical; conditions: ambient conditions or drying
Excerpt: FIG. 5 is an overlay of variable temperature X-ray powder diffraction patterns showing the appearance of the non-isolatable anhydrous Form C of the 2:1 compound I:biphthalate salt.
FIG. 6 is an overlay of X-ray powder diffraction patterns comparing Form B, the dihydrate 2:1 compound I:biphthalate salt, with Form D, the tetrahydrate 2:1 compound I:biphthalate salt. When the wet cake of the 2:1 compound I:biphthalate salt, was air dried at room temperature, Form D was obtained at both T=5 days and T=8-days. The various methods of drying possible, in addition to the size of the sample to be dried, can vary the time needed for drying. The dryness was determined by a stable TG curve showing about a 6% weight loss. Here, the method was to dry in open air, and at both time points (T=5 and T=8 days), the weight loss by TGA was equal to about 6%.
In another embodiment of the invention, anhydrous 2:1 compound I:biphthalate material was non-isolatable at ambient condition, but the hygroscopicity study indicated the presence of one or more hydrated states from 15% to 95% RH. The weight percent of water was 3.4% at 15% RH with a gradual increase to 6.1% at 95%. […] Form D is suspected to be a tetrahydrate biphthalate salt based on its TG data in addition to the hygroscopicity data of Form B. Upon further drying (15 days), the TG and XRD data conform to that of Form B, the dihydrate 2:1 compound I:biphthalate salt.

[2] = hygroscopicity by symmetric vapor sorption analyzer; assay type: physicochemical; conditions: 25° C.
Method: A large quantity of Form A (wet cake of N-(3H-imidazo[4,5-B]pyridin-2-ylmethyl)-2-fluoro-4-methyl-3-oxo-4-aza-5-alpha-androst-1-en-17-beta-carboxamide) was generated by dissolving the crystalline free base (Form E) in pH 3—potassium biphthalate and sulfuric acid mixture—for 10 days at RT. The slurry was filtered and washed with copious amount of D.I. water to wash off residual ions. The wet cake (Form A) was analyzed by x-ray and was then vacuum dried at 37° C. for 3 days. Upon drying, a change in x-ray pattern was observed. The dry cake (Form B) was then analyzed by differential scanning calorimetry (DSC) and thermogravimetry (TG). The TG analysis was performed under a nitrogen flow at a heating rate of 10° C./min, and the DSC was performed under nitrogen flow at a heating rate of 10° C./min in a covered pan. The hygroscopicity of Form B was determined using a symmetric vapor sorption analyzer. The experiment includes an initial drying step at 60° C., followed by measurements of water sorption at 25° C. for percent RH values from 5% to 95% in 10% intervals. The data are reported as percent weight gain as a function of percent RH. Form B was also analyzed for weight percent by liquid chromatography (LCWP) by high performance liquid chromatography (HPLC).

Structure (SMILES) | solid-state form stability / conversion [1] | weight percent of water ([2]; at 15% RH) [%] | weight percent of water ([2]; at 95% RH) [%]
CN1C(=O)C(F)=C[C@]2(C)C3CC[C@]4(C)[C@@H](C(=O)NCc5nc6cccnc6[nH]5)CC[C@H]4C3CC[C@@H]12 (some centres unmarked) [Form D] | converts to Form B upon further drying | – | –
CN1C(=O)C(F)=C[C@]2(C)C3CC[C@]4(C)[C@@H](C(=O)NCc5nc6cccnc6[nH]5)CC[C@H]4C3CC[C@@H]12 (some centres unmarked) [Form C] | readily hydrates to Form B in ambient conditions | – | –
CN1C(=O)C(F)=C[C@]2(C)C3CC[C@]4(C)[C@@H](C(=O)NCc5nc6cccnc6[nH]5)CC[C@H]4C3CC[C@@H]12 (some centres unmarked) [Form B] | the most stable form | 3.4 | 6.1

From patent US20090048283A1, “Salt of an androgen receptor modulator” (priority 2007, published 2009)
